Experimental data from patent publication US6664251B2, “Benzothiazine derivative” (Daiichi Suntory Pharma Co., Ltd., priority 1993, dated 2003).

How the values were obtained:
serotonin-2 receptor = experiment: Anti-serotonin action (anti-5-HT action): contraction of isolated superior mesenteric artery induced by serotonin; conditions: contraction induced by 10^−5 M serotonin (5-HT) taken as 100%, Hartley male guinea pig superior mesenteric artery; for Anti 5-HT action (% of Control) 10^−6 M: test drug 10^−6 M; for Anti 5-HT action (% of Control) 10^−7 M: test drug 10^−7 M
Method: (1) Anti-Serotonin Action (Anti-5-HT Action)
A preparation cut in a helical form was suspended under 0.3 g load in a Magnus cylinder filled with the Tyrode solution which had been aerated with a gas mixture of 95% O2+5% CO2 and maintained at 37° C. Using an isometric transducer (“UL-10”, manufactured by SHINKOH K.K.) and a pressure preamplifier (“DSA-605A”, manufactured by SHINKOH K.K.), variations in tension were measured. The isometric tensions were recorded on a pen-writing recorder (“VP-6537A”, manufactured by NATIONAL K.K.). Taking the contraction induced by 10^−5 M serotonin (5-HT) as 100%, the percent contractions in the presence of each test drug at 10^−7 and 10^−6 M were determined as anti-5-HT action.

α1 receptor = experiment: Anti-α1 action: tonic contraction of isolated thoracic aorta induced by norepinephrine; conditions: tonic contraction induced by 10^−5 M norepinephrine (NE) taken as 100%, Hartley male guinea pig thoracic aorta; for Anti α1 action (% of Control) 10^−7 M: test drug 10^−7 M; for Anti α1 action (% of Control) 10^−8 M: test drug 10^−8 M
Method: The thoracic aorta of each Hartley male guinea pig (body weight: 300-500 g) was excised. A preparation cut in a helical form was suspended under 1 g load in a Magnus cylinder filled with the Tyrode solution which had been aerated with a gas mixture of 95% O2+5% CO2 and maintained at 37° C. Using an isometric transducer (“TB-612J”, manufactured by NIHON KOHDEN) and a pressure preamplifier (“AP-620G”, manufactured by NIHON KOHDEN), variations in tension were measured. The isometric tensions were recorded on a thermal pen-writing recorder (“WT-647G”, manufactured by NIHON KOHDEN).
Taking the tonic contraction induced by 10^−5 M norepinephrine (NE) as 100%, the percent contractions upon addition of each test drug at 10^−8 and 10^−7 M were determined as anti-α1 action.

Compound	Anti 5-HT action (% of Control) 10^−6 M (serotonin-2 receptor)	Anti 5-HT action (% of Control) 10^−7 M (serotonin-2 receptor)	Anti α1 action (% of Control) 10^−7 M (α1 receptor)	Anti α1 action (% of Control) 10^−8 M (α1 receptor)
O=S1(=O)c2ccccc2C2(CN1CCCN1CCN(c3ccc(O)cc3)CC1)OCCO2 [Compound No. 37, 2-[3-[4-(4-hydroxyphenyl)piperazin-1-yl]propyl]-3,4-dihydro-2H-1,2-benzothiazin-4-one 1,1-dioxide ethylene acetal]	8.3 % of Control	15.7 % of Control	96.2 % of Control	100 % of Control
COc1ccc2c(c1)C1(CN(CCCN3CCC(C(=O)c4ccc(F)cc4)CC3)S2(=O)=O)OCCO1 [Compound No. 116, 2-[3-[4-(4-fluorobenzoyl)piperidino]-propyl]-6-methoxy-3,4-dihydro-2H-1,2-benzothiazin-4-one 1,1-dioxide ethylene acetal]	13.9 % of Control	40.2 % of Control	88.3 % of Control	100.7 % of Control
O=S1(=O)c2ccccc2C(O)CN1CCCN1CCN(c2ccc(F)cc2)CC1 (stereo not shown) [Compound No. 77, 2-[3-[4-(4-fluorophenyl)piperazin-1-yl]propyl]-4-hydroxy-3,4-dihydro-2H-1,2-benzothiazine 1,1-dioxide]	18.2 % of Control	45.7 % of Control	79.6 % of Control	100 % of Control
O=S1(=O)c2ccccc2C2(CN1CCCN1CCN(c3ccccc3F)CC1)OCCO2 [compound 35, 2-[3-[4-(2-fluorophenyl)piperazin-1-yl]propyl]-3,4-dihydro-2H-1,2-benzothiazin-4-one 1,1-dioxide ethylene acetal]	7.5 % of Control	38.3 % of Control	89.3 % of Control	99.0 % of Control
O=S1(=O)c2ccccc2C2(CN1CCCN1CCN(c3ccccn3)CC1)OCCO2 [Compound No. 46, 2-[3-[4-(2-pyridyl)piperazin-1-yl]-propyl]-3,4-dihydro-2H-1,2-benzothiazin-4-one 1,1-dioxide ethylene acetal]	5.5 % of Control	39.8 % of Control	97.4 % of Control	100 % of Control
COC1CN(CCCN2CCN(c3ccc(F)cc3)CC2)S(=O)(=O)c2ccccc21 (stereo not shown) [Compound No. 57, 2-[3-[4-(4-fluorophenyl)piperazin-1-yl]propyl]-4-methoxy-3,4-dihydro-2H-1,2-benzothiazine 1,1-dioxide]	10.0 % of Control	22.0 % of Control	81.6 % of Control	97.3 % of Control
COc1cccc2c1C1(CN(CCCN3CCN(c4ccc(F)cc4)CC3)S2(=O)=O)SCCS1 [Compound No. 123, 2-[3-[4-(4-fluorophenyl)piperazin-1-yl]propyl]-5-methoxy-3,4-dihydro-2H-1,2-benzothiazine-4-spiro-2′-(1′,3′-dithiolane) 1,1-dioxide]	–	49.3 % of Control	13.0 % of Control	97.9 % of Control
O=C(c1ccc(F)cc1)C1CCN(CCCN2CC(O)c3ccccc3S2(=O)=O)CC1 (stereo not shown) [Compound No. 76, 2-[3-[4-(4-fluorobenzoyl)piperidino]-propyl]-4-hydroxy-3,4-dihydro-2H-1,2-benzothiazine 1,1-dioxide]	21.7 % of Control	53.9 % of Control	88.2 % of Control	100 % of Control
